Reference: PubChem BioAssay AID1259407 (Chemical Carcinogenesis Research Information System (CCRIS), 2018)
Active and inactive are the calls of the source. No rule for the calls is given here.

Test system: CCRIS mutagenicity, Ames/micronucleus/aberration tests
Test: CCRIS mutagenicity studies
[1] = Test System: AMES SALMONELLA TYPHIMURIUM, Strain/Indicator: TA98, Metabolic Activation: NONE, Method: STANDARD PLATE
[2] = Test System: AMES SALMONELLA TYPHIMURIUM, Strain/Indicator: TA100, Metabolic Activation: NONE, Method: STANDARD PLATE
[3] = Test System: AMES SALMONELLA TYPHIMURIUM, Strain/Indicator: TA1535, Metabolic Activation: NONE, Method: STANDARD PLATE
[4] = Test System: AMES SALMONELLA TYPHIMURIUM, Strain/Indicator: TA1537, Metabolic Activation: NONE, Method: STANDARD PLATE
[5] = Test System: AMES SALMONELLA TYPHIMURIUM, Strain/Indicator: TA98, Metabolic Activation: RAT, LIVER, S-9, AROCLOR 1254, Method: PREINCUBATION
[6] = Test System: AMES SALMONELLA TYPHIMURIUM, Strain/Indicator: TA98, Metabolic Activation: RAT, LIVER, S-9, AROCLOR 1254, Method: STANDARD PLATE
[7] = Test System: AMES SALMONELLA TYPHIMURIUM, Strain/Indicator: TA100, Metabolic Activation: NONE, Method: PREINCUBATION
[8] = Test System: AMES SALMONELLA TYPHIMURIUM, Strain/Indicator: TA100, Metabolic Activation: RAT, LIVER, S-9, AROCLOR 1254, Method: PREINCUBATION
[9] = Test System: AMES SALMONELLA TYPHIMURIUM, Strain/Indicator: TA100, Metabolic Activation: RAT, LIVER, S-9, AROCLOR 1254, Method: STANDARD PLATE

CN(C)c1ccc(C(=C2C=CC(=[N+](C)C)C=C2)c2ccccc2)cc1
mutagenic call (End Point: IN VIVO MICRONUCLEUS, Test System: PERIPHERAL BLOOD ERYTHROCYTES, Species: MOUSE, Strain/Sex: BIG BLUE B6C3F1/FEMALE, Route: DIET): inactive; negative | mutagenic call (Test System: AMES SALMONELLA TYPHIMURIUM, Strain/Indicator: TA97A, Metabolic Activation: NONE, Method: STANDARD PLATE): inactive; negative | mutagenic call (Test System: AMES SALMONELLA TYPHIMURIUM, Strain/Indicator: TA97A, Metabolic Activation: RAT LIVER S-9, 3-METHYLCHOLANTHRENE, PHENOBARBITAL, Method: STANDARD PLATE): inactive; negative | mutagenic call [1]: inactive; negative | mutagenic call (Test System: AMES SALMONELLA TYPHIMURIUM, Strain/Indicator: TA98, Metabolic Activation: RAT LIVER S-9, 3-METHYLCHOLANTHRENE, PHENOBARBITAL, Method: STANDARD PLATE): inactive; negative | mutagenic call (Test System: AMES SALMONELLA TYPHIMURIUM, Strain/Indicator: TA98, Metabolic Activation: RAT, LIVER, S-9, Method: STANDARD PLATE): active; positive | mutagenic call [2]: inactive; negative | mutagenic call (Test System: AMES SALMONELLA TYPHIMURIUM, Strain/Indicator: TA100, Metabolic Activation: RAT LIVER S-9, 3-METHYLCHOLANTHRENE, PHENOBARBITAL, Method: STANDARD PLATE): inactive; negative | mutagenic call (Test System: AMES SALMONELLA TYPHIMURIUM, Strain/Indicator: TA100, Metabolic Activation: RAT, LIVER, S-9, Method: STANDARD PLATE): inactive; negative | mutagenic call (Test System: AMES SALMONELLA TYPHIMURIUM, Strain/Indicator: TA100, Method: PREINCUBATION): active; positive | mutagenic call (Test System: AMES SALMONELLA TYPHIMURIUM, Strain/Indicator: TA102, Metabolic Activation: NONE, Method: STANDARD PLATE): inactive; negative | mutagenic call (Test System: AMES SALMONELLA TYPHIMURIUM, Strain/Indicator: TA102, Metabolic Activation: RAT LIVER S-9, 3-METHYLCHOLANTHRENE, PHENOBARBITAL, Method: STANDARD PLATE): inactive; negative | mutagenic call [3]: inactive; negative | mutagenic call (Test System: AMES SALMONELLA TYPHIMURIUM, Strain/Indicator: TA1535, Metabolic Activation: RAT, LIVER, S-9, Method: STANDARD PLATE): inactive; negative | mutagenic call [4]: inactive; negative | mutagenic call (Test System: AMES SALMONELLA TYPHIMURIUM, Strain/Indicator: TA1537, Metabolic Activation: RAT, LIVER, S-9, Method: STANDARD PLATE): inactive; negative | mutagenic call (Test System: CHO/HGPRT, Strain/Indicator: CHO-K1, Metabolic Activation: NONE, Method: STANDARD PLATE): inactive; negative | mutagenic call (Test System: CHO/HGPRT, Strain/Indicator: CHO-K1, Metabolic Activation: RAT LIVER S-9, 3-METHYLCHOLANTHRENE, PHENOBARBITAL, Method: STANDARD PLATE): inactive; negative

O=[N+]([O-])c1cc2c3ccccc3ccc2c2ccccc12
mutagenic call (Test System: AMES SALMONELLA TYPHIMURIUM, Strain/Indicator: TA98, Metabolic Activation: HAMSTER LIVER S-9, 6-NITROCHRYSENE, Method: PREINCUBATION): active; positive | mutagenic call (Test System: AMES SALMONELLA TYPHIMURIUM, Strain/Indicator: TA98, Metabolic Activation: HAMSTER LIVER S-9, Method: PREINCUBATION): active; positive | mutagenic call [1]: active; positive | mutagenic call [5]: active; positive | mutagenic call [6]: active; positive | mutagenic call (Test System: AMES SALMONELLA TYPHIMURIUM, Strain/Indicator: TA98, Metabolic Activation: RAT, LIVER, S-9, Method: PREINCUBATION): active; positive | mutagenic call (Test System: AMES SALMONELLA TYPHIMURIUM, Strain/Indicator: TA100, Metabolic Activation: HAMSTER LIVER S-9, 6-NITROCHRYSENE, Method: PREINCUBATION): active; positive | mutagenic call (Test System: AMES SALMONELLA TYPHIMURIUM, Strain/Indicator: TA100, Metabolic Activation: HAMSTER LIVER S-9, Method: PREINCUBATION): active; positive | mutagenic call [7]: active; positive | mutagenic call [2]: active; positive | mutagenic call [8]: active; positive | mutagenic call [9]: active; positive | mutagenic call (Test System: AMES SALMONELLA TYPHIMURIUM, Strain/Indicator: TA100, Metabolic Activation: RAT, LIVER, S-9, Method: PREINCUBATION): active; positive | mutagenic call (Test System: AMES SALMONELLA TYPHIMURIUM, Strain/Indicator: TA102, Metabolic Activation: HAMSTER LIVER S-9, 6-NITROCHRYSENE, Method: PREINCUBATION): active; positive | mutagenic call (Test System: AMES SALMONELLA TYPHIMURIUM, Strain/Indicator: TA102, Metabolic Activation: HAMSTER LIVER S-9, Method: PREINCUBATION): active; positive | mutagenic call (Test System: AMES SALMONELLA TYPHIMURIUM, Strain/Indicator: TA102, Metabolic Activation: NONE, Method: PREINCUBATION): inactive; negative | mutagenic call (Test System: CHINESE HAMSTER OVARY, Strain/Indicator: CHO-K1-BH4 (HGPRT)/6-THIOGUANINE, Metabolic Activation: NONE, Method: STANDARD PLATE): inactive; negative | mutagenic call (Test System: CHINESE HAMSTER OVARY, Strain/Indicator: CHO-K1-BH4 (HGPRT)/6-THIOGUANINE, Metabolic Activation: RAT, LIVER, S-9, AROCLOR 1254, Method: STANDARD PLATE): active; positive | mutagenic call (Test System: CHINESE HAMSTER OVARY, Strain/Indicator: CHO-UV5 (HGPRT)/6-THIOGUANINE, Metabolic Activation: NONE, Method: STANDARD PLATE): active; positive | mutagenic call (Test System: CHINESE HAMSTER OVARY, Strain/Indicator: CHO-UV5 (HGPRT)/6-THIOGUANINE, Metabolic Activation: RAT, LIVER, S-9, AROCLOR 1254, Method: STANDARD PLATE): active; positive

C#C[C@]1(OC(=O)CCCCCC)CC[C@H]2[C@@H]3CCC4=CC(=O)CC[C@@H]4[C@H]3CC[C@@]21C
mutagenic call (Test System: AMES SALMONELLA TYPHIMURIUM, Strain/Indicator: TA98, Metabolic Activation: NONE, Method: PREINCUBATION): inactive; negative | mutagenic call [1]: inactive; negative | mutagenic call [5]: inactive; negative | mutagenic call [6]: inactive; negative | mutagenic call [7]: inactive; negative | mutagenic call [2]: inactive; negative | mutagenic call [8]: inactive; negative | mutagenic call [9]: inactive; negative | mutagenic call (Test System: AMES SALMONELLA TYPHIMURIUM, Strain/Indicator: TA1535, Metabolic Activation: NONE, Method: PREINCUBATION): inactive; negative | mutagenic call [3]: inactive; negative | mutagenic call (Test System: AMES SALMONELLA TYPHIMURIUM, Strain/Indicator: TA1535, Metabolic Activation: RAT, LIVER, S-9, AROCLOR 1254, Method: PREINCUBATION): inactive; negative | mutagenic call (Test System: AMES SALMONELLA TYPHIMURIUM, Strain/Indicator: TA1535, Metabolic Activation: RAT, LIVER, S-9, AROCLOR 1254, Method: STANDARD PLATE): inactive; negative | mutagenic call (Test System: AMES SALMONELLA TYPHIMURIUM, Strain/Indicator: TA1537, Metabolic Activation: NONE, Method: PREINCUBATION): inactive; negative | mutagenic call [4]: inactive; negative | mutagenic call (Test System: AMES SALMONELLA TYPHIMURIUM, Strain/Indicator: TA1537, Metabolic Activation: RAT, LIVER, S-9, AROCLOR 1254, Method: PREINCUBATION): inactive; negative | mutagenic call (Test System: AMES SALMONELLA TYPHIMURIUM, Strain/Indicator: TA1537, Metabolic Activation: RAT, LIVER, S-9, AROCLOR 1254, Method: STANDARD PLATE): inactive; negative | mutagenic call (Test System: AMES SALMONELLA TYPHIMURIUM, Strain/Indicator: TA1538, Metabolic Activation: NONE, Method: PREINCUBATION): inactive; negative | mutagenic call (Test System: AMES SALMONELLA TYPHIMURIUM, Strain/Indicator: TA1538, Metabolic Activation: NONE, Method: STANDARD PLATE): inactive; negative | mutagenic call (Test System: AMES SALMONELLA TYPHIMURIUM, Strain/Indicator: TA1538, Metabolic Activation: RAT, LIVER, S-9, AROCLOR 1254, Method: PREINCUBATION): inactive; negative | mutagenic call (Test System: AMES SALMONELLA TYPHIMURIUM, Strain/Indicator: TA1538, Metabolic Activation: RAT, LIVER, S-9, AROCLOR 1254, Method: STANDARD PLATE): inactive; negative
